Peptide text beside a SMILES is read from it.
What was measured:
[1] = biological target: T1, DOR-2 (mMOR-1) mu receptor (Mus musculus, UniProt P42866, H54D/R258Q/R47P/S53N/V245G); format: binding, murine
T1 construct: expressed in transfected cells

[2] = biological target: DOR-1 clone (delta opioid receptor) (Mus musculus, UniProt P32300, V68C)
[3] = biological target: receptor encoded by the DOR-1 clone (delta opioid receptor) (Mus musculus, UniProt P32300, V68C)
Chain of receptor encoded by the DOR-1 clone (delta opioid receptor) (P32300 whole entry V68C): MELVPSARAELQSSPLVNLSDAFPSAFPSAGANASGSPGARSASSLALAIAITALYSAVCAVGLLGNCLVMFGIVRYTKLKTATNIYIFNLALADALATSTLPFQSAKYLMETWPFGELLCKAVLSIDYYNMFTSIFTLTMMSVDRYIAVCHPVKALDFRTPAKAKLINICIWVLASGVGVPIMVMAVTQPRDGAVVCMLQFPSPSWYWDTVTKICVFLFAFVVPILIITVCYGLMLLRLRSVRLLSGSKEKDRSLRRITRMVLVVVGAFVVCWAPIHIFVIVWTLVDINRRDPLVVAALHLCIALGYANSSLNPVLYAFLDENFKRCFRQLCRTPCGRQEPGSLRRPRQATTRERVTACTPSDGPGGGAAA

Chain of DOR-1 clone (delta opioid receptor) (P32300 whole entry V68C): as above
T1 sequence (P42866 whole entry R47P/S53N/H54D/V245G/R258Q): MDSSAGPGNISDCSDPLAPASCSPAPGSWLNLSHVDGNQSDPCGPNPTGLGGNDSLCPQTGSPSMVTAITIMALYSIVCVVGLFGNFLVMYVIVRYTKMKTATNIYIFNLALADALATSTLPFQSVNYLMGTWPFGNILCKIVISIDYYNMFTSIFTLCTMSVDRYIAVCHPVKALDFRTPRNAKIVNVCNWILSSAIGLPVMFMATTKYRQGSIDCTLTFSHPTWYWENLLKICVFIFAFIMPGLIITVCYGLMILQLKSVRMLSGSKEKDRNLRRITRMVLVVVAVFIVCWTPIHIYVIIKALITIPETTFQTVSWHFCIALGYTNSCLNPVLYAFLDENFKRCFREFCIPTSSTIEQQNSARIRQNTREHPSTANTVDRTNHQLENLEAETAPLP

## C[C@@H](NC(=O)[C@@H](N)Cc1ccc(O)cc1)C(=O)NCC(=O)N(C)[C@@H](Cc1ccccc1)C(=O)NCCO [DAGO, D-Alka^2-N-MePhe^4-Gly-ol^5-enkephalin]
[1]
  displacement of 3H-DPN: displacement of ^3H-DPN by nanomolar concentrations
[2]
  displacement of 125I-DADLE binding: did not displace
[3]
  displacement of 3H-diprenorphine: Only weak displacement

## CN1CC[C@]23CCCC[C@H]2[C@H]1Cc1ccc(O)cc13 [levorphanol]
[2]
  displacement of 125I-DADLE binding: did displace
[3]
  displacement of 3H-diprenorphine: displaced
  displacement of 3H-diprenorphine, rank in decreasing order of affinity: in decreasing order of affinity, was observed with diprenorphine, etorphine, levorphanol and morphine

## NC(=O)[C@@H]1CCCN1C(=O)[C@H](Cc1ccccc1)NC(=O)[C@@H]1CCCN1C(=O)[C@@H](N)Cc1ccc(O)cc1 [morphiceptin] (H-YPFP-NH2)
[1]
  displacement of 3H-DPN: displacement of ^3H-DPN by nanomolar concentrations

## mono-^125I-2dAla, 5dLeu enkephalin [^125I-DADLE]
Opiate receptors
  binding affinity compared with DADLE: slightly lower

From patent US7723071B2 (priority 1992, dated 2010)
